Target: T1, KDM4B (Homo sapiens, UniProt O94953)
T1 sequence (O94953 1-500): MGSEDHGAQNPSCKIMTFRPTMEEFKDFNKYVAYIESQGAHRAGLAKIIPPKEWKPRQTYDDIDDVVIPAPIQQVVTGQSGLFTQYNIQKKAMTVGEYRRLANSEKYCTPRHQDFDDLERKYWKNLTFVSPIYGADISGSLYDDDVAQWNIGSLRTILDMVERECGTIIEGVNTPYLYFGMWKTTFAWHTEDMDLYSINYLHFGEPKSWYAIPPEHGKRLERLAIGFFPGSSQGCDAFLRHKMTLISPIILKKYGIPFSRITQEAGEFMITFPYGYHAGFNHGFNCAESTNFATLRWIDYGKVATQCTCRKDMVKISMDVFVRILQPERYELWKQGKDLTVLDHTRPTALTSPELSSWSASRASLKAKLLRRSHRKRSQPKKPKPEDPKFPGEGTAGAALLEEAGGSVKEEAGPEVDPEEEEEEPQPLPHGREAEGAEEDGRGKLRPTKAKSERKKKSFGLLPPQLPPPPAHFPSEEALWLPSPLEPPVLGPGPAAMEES
Assay: 1H-15N TROSY-HSQC NMR shifts
Format: biochemical

For `O=C(NCCCc1ccccc1)c1cccc(-c2cc(O)c3ncccc3c2)c1` [B3, NCGC00244536], which IC50 is on record?
The IC50 was roughly 10 nM.
